Patent US7996156B2, “Methods for predicting properties of molecules” (priority 2002, dated 2011)
Where two headings read alike, the source gives them in different places.

Molecular target: T1, estrogen receptor (Rattus norvegicus, UniProt P06211)
T1 construct: in rat uterine cytosol, which was obtained from ovariectomized uteri of Sprague-Dawley rats; from tissue; host or cells: uterine cytosol of ovariectomized Sprague-Dawley rats
T1 sequence (P06211 1-600): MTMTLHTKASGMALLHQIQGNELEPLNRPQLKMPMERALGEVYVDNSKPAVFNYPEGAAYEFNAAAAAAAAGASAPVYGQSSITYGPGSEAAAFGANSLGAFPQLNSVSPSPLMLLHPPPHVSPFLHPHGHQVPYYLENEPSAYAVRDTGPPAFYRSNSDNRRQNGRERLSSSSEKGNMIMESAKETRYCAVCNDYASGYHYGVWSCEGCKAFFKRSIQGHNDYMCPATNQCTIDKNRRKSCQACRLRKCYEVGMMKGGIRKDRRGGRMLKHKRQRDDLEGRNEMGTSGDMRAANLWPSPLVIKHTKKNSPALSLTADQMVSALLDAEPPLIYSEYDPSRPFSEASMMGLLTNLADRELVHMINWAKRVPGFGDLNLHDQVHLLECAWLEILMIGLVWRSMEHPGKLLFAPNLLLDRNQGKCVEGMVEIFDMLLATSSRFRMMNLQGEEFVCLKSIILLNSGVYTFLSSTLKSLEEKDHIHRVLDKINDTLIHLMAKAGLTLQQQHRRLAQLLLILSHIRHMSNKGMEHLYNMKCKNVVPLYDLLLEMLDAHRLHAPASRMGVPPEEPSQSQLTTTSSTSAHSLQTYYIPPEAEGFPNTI
Experiment: Competitive ER binding assay with [3H]E2 in rat uterine cytosol (NCTR)
Text: The log relative binding activity (RBA) data for these 130 structurally diverse compounds was used to train the CoSCoSA models. The data was produced at NCTR using a competitive ER binding assay with radiolabeled estradiol ([^3H]E2) in rat uterine cytosol, which was obtained from ovariectomized uteri of Sprague-Dawley rats. […] For each of the 130 compounds, the ^13C 2D ^13C—^13C COSY NMR experiment was simulated using the ACD Labs CNMR version 5.0 2D predictor software. The COSY NMR spectra could be saved as two tables per compound.

[1] = relative binding affinity vs 17-β-estradiol (RBA 100), rat uterine cytosol, 130 compound training set

Compound	Exp. Log(RBA) [1]	Exp. Log(RBA)
4-ethyl-7-OH-(p-meoxyphenol)-dihydro-1-benzopyran-2-one	−0.05	
4-hydroxytamoxifen		2.24
C[C@]12CC[C@@H]3c4ccc(O)cc4[C@@H](O)C[C@H]3[C@@H]1CC[C@@H]2O [1,3,5-Estratrien-3,6α-17β-triol]	−0.15	
C[Si](C)(O[Si](C)(C)c1ccccc1)c1ccccc1 [1,3-diphenyltetramethyldisiloxane]		−3.16
O=C(C(=O)c1ccc(O)cc1O)c1ccc(O)cc1O [2,2′,4,4′-tetrahydroxybenzil]		−0.68
Oc1ccc(Cl)cc1Cc1cc(Cl)ccc1O [2,2′-methylenebis(4-chlorophenol)]		−2.45
Oc1ccc(-c2cc(Cl)c(Cl)c(Cl)c2Cl)cc1 [2,3,4,5-tetraCl-4′-biphenylol]	−0.64	
O=C(c1ccccc1)c1ccc(O)cc1O [2,4-dihyroxybenzophenone]	−2.61	
Clc1ccc(-c2ccccc2Cl)cc1 [2,4′-dichlorobiphenyl]		−3.61
Oc1ccc(-c2cc(Cl)ccc2Cl)cc1 [2,5-dichloro-4′-biphenylol]		−1.44
CCC(c1ccc(O)cc1)C(CC)c1c(C)cc(O)cc1C (stereo not shown) [2,6-dimethylhexestrol]	1.11	
Oc1ccc(-c2ccccc2)c(Cl)c1 [2-Cl-4-biphenylol]	−2.77	
C[C@]12CC[C@@H]3c4cc(O)c(O)cc4CC[C@H]3[C@@H]1CC[C@@H]2O [2-hydroxyestradiol]		1.47
O=C(/C=C/c1ccc(O)cc1)c1ccc(O)cc1O [2′,4,4′-trihydroxychalcone]		−1.26
Oc1c(Cl)cc(-c2cc(Cl)c(O)c(Cl)c2)cc1Cl [3,3′,5,5′-tetraCl-4,4′-biphenyldiol]	−3.25	
CCC(c1ccc(O)c(O)c1)C(CC)c1ccc(O)c(O)c1 (stereo not shown) [3,3′-dihydroxyhestrol]	1.19	
O=c1c(O)c(-c2ccc(O)cc2)oc2ccc(O)cc12 [3,6,4′-trihydroxyflavone]	−0.35	

Compound	Exp. Log(RBA) [1]	Exp. Log(RBA)
C[C@]12CC[C@@H]3c4ccccc4CC[C@H]3[C@@H]1CC[C@@H]2O [3-deoxyestradiol]	−0.3	
C[C@]12CC[C@@H]3c4ccccc4CC[C@H]3[C@@H]1CCC2=O [3-deoxyestrone]	−2.2	
CCc1cccc(O)c1 [3-ethylphenol]	−3.87	
COc1ccc2c(c1)CC[C@@H]1[C@@H]2CC[C@]2(C)[C@@H](O)[C@H](O)C[C@@H]12 [3-methylestriol]	−1.65	
Oc1cccc(-c2ccccc2)c1 [3-phenylphenol]		−3.44
C[C@]12CC[C@@H](O)C[C@@H]1CC[C@@H]1[C@@H]2CC[C@]2(C)[C@@H](O)CC[C@@H]12 [3α-androstanediol]		−2.67
C[C@]12CC[C@H](O)C[C@@H]1CC[C@@H]1[C@@H]2CC[C@]2(C)[C@@H](O)CC[C@@H]12 [3β-androstanediol]		−0.92
O=c1c(-c2ccc(O)c(O)c2)coc2cc(O)ccc12 [3′,4′,7-trihydroxyisoflavone]	−2.35	
O=C1CC(c2cccc(O)c2)Oc2ccccc21 (stereo not shown) [3′-OH-flavanone]	−2.78	
Oc1ccc(CCc2ccc(O)cc2)cc1 [4,4′-(1,2-ethanediyl)bisphenol]	−1.44	
Oc1ccc(C=Cc2ccc(O)cc2)cc1 [4,4′-dihroxystilbene]	−0.55	
O=C(c1ccc(O)cc1)c1ccc(O)cc1 [4,4′-dihydroxybenzophenone]	−2.46	
O=S(=O)(c1ccc(O)cc1)c1ccc(O)cc1 [4,4′-sulfonyldiphenol]		−3.07
O=c1cc(-c2ccc(O)cc2)oc2ccc(O)cc12 [4,6-dihydroxyflavone]	−0.82	
Cc1cc(O)ccc1Cl [4-Cl-3-methylphenol]	−3.38	
Oc1ccc(-c2ccc(Cl)cc2)cc1 [4-Cl-4′-biphenylol]	−2.18	
O=C(/C=C/c1ccc(O)cc1)c1ccccc1 [4-OH-chalcone]	−2.43	
